# Measured values from US10413505B1, “Pharmaceutical compositions and methods of using the same” (priority 2017, dated 2019).
# Assays:
# [1] = Example 1 single-dose plasma pharmacokinetics after intranasal administration; type: in vivo, human; conditions: healthy subjects; single intranasal 160 mg cocaine HCl; plasma, >12 h after dosing
# Protocol: Single-dose plasma and urinary pharmacokinetics of the pharmaceutical composition following intranasal administration was characterized in this study. This was a single-dose study in 30 healthy volunteers. The objective of the study was to examine the systemic pharmacokinetics of the pharmaceutical composition following acute, topical intranasal administration.
# (§1) A single dose of a pharmaceutical composition was administered to both nostrils using cottonoid pledgets. […] Each pledget absorbed approximately 1 mL of pharmaceutical composition (i.e., 40 mg cocaine hydrochloride). Two soaked pledgets were placed into each nasal cavity of the subject and against the anterior septum for 20 minutes; thus, a total dose of 160 mg of cocaine hydrochloride was administered.
# Blood samples were collected pre-dose (30 minutes before pledget insertion), and 7.5, 15, 20, 30, 45, 60, 75, 90, and 105 minutes and 2, 3, 4, 6, 8, 10, and 12 hours from the start of application of the pharmaceutical composition.
# The effect of gender on Cmax, Tmax, AUClast, AUCinf, and t1/2 was determined. The effects of age, body weight, and BMI on AUClast were determined.
# [2] = Example 2 urinary pharmacokinetics, normal renal function vs severe renal impairment; conditions: single intranasal 160 mg cocaine HCl; for 0 to 32 hour urinary recovery (geometric mean) / 0 to 32 hour urinary recovery (mean) / 0 to 32 hour urinary recovery (median): metabolites as cocaine equivalents
# Protocol: For the urine analysis of cocaine, BE, and EME, individual urinary recoveries for each analyte were determined over each collection interval as the product of the urine concentration times the urine volume. The total recoveries were determined as the sum of the recoveries over all the intervals. Total urinary recoveries were also expressed as the percentage of the administered dose, after correction for the molecular weight of each analyte. The renal clearances of cocaine, BE, and EME were determined as the urinary recovery (in μg) divided by the plasma AUC over the same time interval (the longest period for which both plasma and urine measurements were available).
# Urine was collected prior to dosing and from 0-2, 2-4, 4-8, 8-12, 12-24, and 24-32 hours after the beginning of dose application. […] Testing methods used were consistent with those used by inVentiv Health Clinical Lab, Inc., Miami, Fla., U.S.A. Urinary pharmacokinetic parameters included total urinary recovery (μg), urinary recovery as a percentage of dose, and CLr.
# [3] = Benzoylecgonine solubility in water; type: physicochemical; conditions: deionized water vehicle
# Protocol: Deionized water was chosen as the vehicle for this study to avoid any vehicle-related local toxicity. Benzoylecgonine is soluble in water up to approximately 40 mg/mL.
# [4] = Example 1 urinary pharmacokinetics after intranasal administration; type: in vivo, human; conditions: healthy subjects; single intranasal 160 mg cocaine HCl; urine 0-12 h; metabolites as cocaine equivalents
# Protocol: as §1
# Urine samples were collected pre-dose and at the following intervals from the start of intranasal application of the pharmaceutical composition: 0-2 hours, 2-4 hours, 4-8 hours, and 8-12 hours. […] A 25-μL aliquot of each urine sample was processed by liquid-liquid extraction.
# Urinary pharmacokinetic parameters were analyzed using noncompartmental methods.
# [5] = normal renal function, listed as Benzoylecgonine
# [6] = severe renal impairment, listed as Benzoylecgonine
smiles,measurement,setting,value
"CN1[C@H]2CC[C@@H]1[C@@H](C(=O)O)[C@@H](OC(=O)c1ccccc1)C2 [BE, benzoylecgonine]",plasma level not exceeded (metabolite not detectable in plasma),[1],≤ 100 ng/mL
same,0-32 h Urinary Recovery (geometric mean),[2]; normal renal function,2106 µg
same,0-32 h Urinary Recovery (mean),[2]; normal renal function,2764 µg
same,0-32 h Urinary Recovery (median),[2]; normal renal function,1483 µg
same,"Renal Clearance, CLr (geometric mean)",[2]; normal renal function,3.61 L/h
same,"Renal Clearance, CLr (mean)",[2]; normal renal function,3.77 L/h
same,"Renal Clearance, CLr (median)",[2]; normal renal function,4.01 L/h
same,"Renal Clearance, geometric mean",[2]; normal renal function,60.14 mL/min
same,"Renal Clearance, mean",[2]; normal renal function,62.78 mL/min
same,"Renal Clearance, median",[2]; normal renal function,66.86 mL/min
same,0 to 32 hour urinary recovery (geometric mean),[2]; normal renal function,1.55 % of administered dose
same,0 to 32 hour urinary recovery (mean),[2]; normal renal function,2.03 % of administered dose
same,0 to 32 hour urinary recovery (median),[2]; normal renal function,1.089 % of administered dose
same,0 to 32 hour urinary recovery (geometric mean),[2]; [5],1.546 % of administered dose
same,0 to 32 hour urinary recovery (mean),[2]; [5],2.029 % of administered dose
same,0-32 h Urinary Recovery (geometric mean),[2]; severe renal impairment,3126 µg
same,0-32 h Urinary Recovery (mean),[2]; severe renal impairment,3738 µg
same,0-32 h Urinary Recovery (median),[2]; severe renal impairment,2709 µg
same,"Renal Clearance, CLr (geometric mean)",[2]; severe renal impairment,0.854 L/h
same,"Renal Clearance, CLr (mean)",[2]; severe renal impairment,0.919 L/h
same,"Renal Clearance, CLr (median)",[2]; severe renal impairment,0.824 L/h
same,"Renal Clearance, geometric mean",[2]; severe renal impairment,14.2 mL/min
same,"Renal Clearance, mean",[2]; severe renal impairment,15.3 mL/min
same,"Renal Clearance, median",[2]; severe renal impairment,13.7 mL/min
same,0 to 32 hour urinary recovery (geometric mean),[2]; severe renal impairment,2.29 % of administered dose
same,0 to 32 hour urinary recovery (mean),[2]; severe renal impairment,2.74 % of administered dose
same,0 to 32 hour urinary recovery (median),[2]; severe renal impairment,1.988 % of administered dose
same,0 to 32 hour urinary recovery (geometric mean),[2]; [6],2.294 % of administered dose
same,0 to 32 hour urinary recovery (mean),[2]; [6],2.744 % of administered dose
same,solubility in water,[3],approximately 40 mg/mL
same,Total Urinary Recovery (Geometric mean),[4],713 µg
same,Total Urinary Recovery (Mean),[4],816 µg
same,Total Urinary Recovery (Median),[4],769 µg
same,Urinary Recovery (Geometric mean),[4],0.467 % dose
same,Urinary Recovery (Mean),[4],0.534 % dose
same,Urinary Recovery (Median),[4],0.504 % dose
